Source: publication PMC4186430, “Modeling of age-dependent amyloid accumulation and γ-secretase inhibition of soluble and insoluble Aβ in a transgenic mouse model of amyloid deposition” (Pharmacology Research & Perspectives, 2013)

Columns and labels:
[1] = Population pharmacokinetic modeling of MRK-560 plasma and brain exposure in mice; assay type: in vivo, C57BL/6, Tg2576 and Tg2576 wild-type littermate mice
Excerpt: C57BL/6 female mice (Harlan Laboratories, Horst, The Netherlands), Tg2576 transgenic female mice (Taconics, Georgetown, NY), overexpressing human APP with the Swedish mutation (Hsiao et al. [1996]), and Tg2576 wild-type littermates were used in the experiments. The C57BL/6 and wild-type littermates were only used for pharmacokinetic PK sampling and analysis. The housing environment was humidity- and temperature-controlled with a constant 12-h light/dark cycle. The animals were kept in conventional housing (5–10 mice per cage) and had access to standard rodent chow and tap water ad libitum. The transgenic mice were aged at the local AstraZeneca (AZ) animal facilities. On the day of study, the mice were weighed. MRK-560 (synthesized in-house; AZ) or vehicle was administered by oral gavage. Three types of vehicles were used: (1) 1% MCC/NaCMC (Microcrystalline Cellulose/Sodiumcarboxymethyl Cellulose) +0.6% lipoid S100, (2) 20% HPβCD in 0.1 mol/L Meglumine, and (3) 40% HPβCD in 0.3 mol/L Meglumine. Observations of the animals’ health were made throughout all the experiments. Data from 23 MRK-560 studies were used in this analysis and details of all studies can be found in Table 1. For the AP analysis, data from vehicle and untreated Tg2576 mice from 48 additional (i.e., non-MRK-560) in-house studies were used. The additional dataset consisted of Aβ levels measured in Tg2576 mice of various ages, between 3.5 and 26 months at termination. Details of those data can be found in Appelkvist et al. ([2011]). In total, data from 71 preclinical studies were used.
Blood samples were collected by tail vein puncture in PK studies and occasionally in efficacy studies. At termination blood was withdrawn from anesthetized mice by heart puncture into prechilled microtainer Ethylenediaminetetraacetic acid tubes. Blood samples were immediately put on ice and centrifuged for 10 min at ∼3000g at +4°C within 20 min from sampling. Plasma was transferred to prechilled polypropylene tubes. The tubes were immediately frozen on dry ice and stored at −70°C until analysis.
Plasma samples and standards were precipitated with acetonitrile containing internal standard. After centrifugation, supernatant was transferred to a new 96-well plate, diluted with mobile phase, and injected on the LC/MS/MS system (Waters Corporation, Sollentuna, Sweden) (Bueters et al. [2011]). For the determination of the compound concentration in the brain, frozen mouse brains were weighed, and an ice-cold Ringer solution (two volumes per weight) was added. The brains were sonicated using a Multi-element probe SONICS VCX 500 (Newtown, CT). To 50 μL homogenized tissue 150 μL ice-cold acetonitrile containing an internal standard was added in a precipitation plate (96-well PP-plate; Waters, Milford, MA). After mixing and centrifugation (4°C, 4000 rpm, 20 min), supernatant was transferred to an analysis plate (PP-plate, Waters) and analyzed by LC/MS/MS (Borgegård et al. [2011]). As the brains were not perfused before exposure analysis, a volume of 1.3% of blood in the brain and the concentration of compound in plasma were used to calculate the brain concentration (Richard [1968]; Park and Sinko [2005]).
In the pharmacokinetic analysis, one- and two-compartmental first-order models were evaluated to fit the MRK-560 concentration–time profiles in plasma and brain. Separate absorption rate constants were estimated for oral and subcutaneous route of administration. A dose-dependent bioavailability was assessed and was modeled using the function shown in equation (1): [drawing 1] (1)
An instantaneous distribution of the unbound compound between plasma and brain was assumed. The brain exposure was modeled using equation (2): [drawing 2] (2) where CP was the plasma concentration, θ4 was the brain:plasma concentration ratio, and fu,pl and fu,br were the plasma and brain unbound fraction, respectively. […]

[2] = Fraction unbound in brain, rat brain slice uptake method; assay type: in vitro ADME, Sprague-Dawley rats; details: male, Sprague-Dawley, brain slices (coronal slices of striatal areas, 300 μm), observed, 1 μmol/L compound, 37°C, read-out: fu,br (brain unbound fraction)
Procedure: Determination of the fraction of compound unbound in the brain was determined in a rat brain slice uptake method (Fridén et al. [2009]; Borgegård et al. [2011]). In short, male Sprague-Dawley rats were decapitated under isoflurane anesthesia. The brains were immersed in an ice-cold oxygenated extracellular fluid (ECF) buffer. Coronal slices of the striatal areas (300 μm) were preincubated in a 10 mL ECF buffer for 5 min at 37°C followed by incubation with 1 μmol/L compound in an ECF buffer for 5 h at 37°C under 5% CO2 in oxygen. After incubation, brain slices were weighed and homogenized in nine volumes (w/v) of ECF buffer. The slice homogenates and ECF buffer were stored at −20°C prior to analysis. To 50 μL homogenized tissue, 150 μL ice-cold acetonitrile containing an internal standard was added in a precipitation plate. After mixing and centrifugation (4°C, 4000 rpm, 20 min), supernatant was transferred to the analysis plate and analyzed by LC/MS/MS.

Brain:plasma ratio ([1]; estimated total brain:plasma ratio, constant over 0.01-15 μmol/L): 0.31 | Kp ([1]; female, C57BL/6, Tg2576, Tg2576 wild-type littermates, mouse, brain, estimated total brain:plasma ratio, constant over 0.01-15 μmol/L): 0.3 | clearance ([1]; female, C57BL/6, Tg2576, Tg2576 wild-type littermates, mouse, plasma, two-compartmental model): 2 mL/min/kg | differences in pharmacokinetics among C57BL/6, Tg2576 and Tg2576 wild-type littermates ([1]; mouse, in vivo): No differences | Q ([1]; two-compartmental model): 127 mL/min/kg | V2 ([1]; two-compartmental model): 0.28 L/kg | V3 ([1]; two-compartmental model): 2.9 L/kg | KA (oral) ([1]; two-compartmental model, absorption rate constant, oral): 0.41 h⁻¹ | KA (s.c.) ([1]; two-compartmental model, absorption rate constant, s.c.): 0.81 h⁻¹ | plasma exposure with vehicles 2 and 3 compared to vehicle 1 ([1]; vehicles 2, 3 = HPβCD/Meglumine, vehicle 1 = 1% MCC/NaCMC+0.6% lipoid S100): fourfold higher | fraction unbound at 5 h, 1 μmol/L [2]: 0.0067
Structure (SMILES): O=S(=O)(NC1CCC(c2cc(F)ccc2F)(S(=O)(=O)c2ccc(Cl)cc2)CC1)C(F)(F)F (stereo not drawn) [MRK-560, N-[cis-4-[(4-chlorophenyl)-sulfonyl]-4-(2,5-difluorophenyl)cyclohexyl]-1,1,1-trifluoromethanesulfonamide]
